Measurements reported in ChEMBL document CHEMBL5042529, “One-Pot Enzymatic Synthesis and Biological Evaluation of Ganglioside GM3 Derivatives as Potential Cancer Immunotherapeutics” (J Med Chem, 2022).
Calls of active or inactive are those of the source. The rule behind the calls is not given here.

What was measured:
[1] = system: Mus musculus; experiment: Effect on IL-2 expression in C57BL/6 mouse transfected with mouse B16-Luc cells assessed as serum […] level at 5 mg/kg, ip qd treated for 7 days by ELISA; format: functional, organism-based; conditions: time 7.0 day
[2] = system: Mus musculus; experiment: Effect on IL-2 expression in C57BL/6 mouse transfected with mouse B16-Luc cells assessed as serum IgG level at 5 mg/kg, ip qd treated for 7 days by ELISA; format: functional, organism-based; conditions: time 7.0 day
[3] = system: Mus musculus; experiment: Effect on IL-2 expression in C57BL/6 mouse transfected with mouse B16-Luc cells assessed as serum IL-2 level at 5 mg/kg, ip qd treated for 7 days by ELISA; format: functional, organism-based; conditions: time 7.0 day
[4] = Cytotoxicity against rat PC-12 cells measured after 24 hrs by MTT assay; format: toxicity, cell-based
[5] = Cytotoxicity against mouse Neuro2a cells measured after 24 hrs by MTT assay; format: toxicity, cell-based, N2a
[6] = Cytotoxicity against human HeLa cells measured after 24 hrs by MTT assay; format: toxicity, cell-based
[7] = Cytotoxicity against human A-431 cells measured after 24 hrs by MTT assay; format: toxicity, cell-based
[8] = Cytotoxicity against CHO cells measured after 24 hrs by MTT assay; format: toxicity, cell-based, Cricetulus griseus; conditions: Chinese hamster
[9] = system: A-431; experiment: Antimigratory activity in human A-431 cells assessed as inhibition of scratch at 50 uM measured after 24 hrs by Wound healing assay; format: functional
[10] = system: A-431; experiment: Inhibition of cell invasion in human A-431 cells assessed as inhibition rate at 50 uM incubated for 24 hrs by crystal violet staining based transwell assay; format: functional

Row | SMILES | Activity [1] | Activity [2] | Activity [3] | IC50 at 24 h [4] [µM] | IC50 at 24 h [5] [µM] | IC50 at 24 h [6] [µM] | IC50 at 24 h [7] [µM] | IC50 at 24 h [8] [µM] | Activity [9] | inhibition at 50 µM [10] [%]
1 | CCCCCCCCCCCCC/C=C/[C@@H](O)[C@H](CO[C@@H]1O[C@H](CO)[C@@H](O[C@@H]2O[C@H](CO)[C@H](O)[C@H](O[C@]3(C(=O)O)C[C@H](O)[C@@H](NC(C)=O)[C@H]([C@H](O)[C@H](O)CO)O3)[C@H]2O)[C@H](O)[C@H]1O)NC(=O)CCCCCCCCCCCCCCCCC | inactive | inactive | inactive | – | – | – | – | – | – | –
2 | CCCCCCCCCCCCC/C=C/[C@@H](O)[C@H](CO[C@@H]1O[C@H](CO)[C@@H](O[C@@H]2O[C@H](CO)[C@H](O)[C@H](O[C@]3(C(=O)O)C[C@H](O)[C@@H](NC(=O)c4ccc(I)cc4)[C@H]([C@H](O)[C@H](O)CO)O3)[C@H]2O)[C@H](O)[C@H]1O)NC(=O)CCCCCCCCCCCCCCCCC | – | – | – | > 200 | > 200 | > 200 | > 200 | > 200 | – | –
3 | CCCCCCCCCCCCC/C=C/[C@@H](O)[C@H](CO[C@@H]1O[C@H](CO)[C@@H](O[C@@H]2O[C@H](CO)[C@H](O)[C@H](O[C@]3(C(=O)O)C[C@H](O)[C@@H](NC(=O)CC)[C@H]([C@H](O)[C@H](O)CO)O3)[C@H]2O)[C@H](O)[C@H]1O)NC(=O)CCCCCCCCCCCCCCCCC | – | – | – | > 200 | > 200 | > 200 | > 200 | > 200 | – | –
4 | CCCCCCCCCCCCC/C=C/[C@@H](O)[C@H](CO[C@@H]1O[C@H](CO)[C@@H](O[C@@H]2O[C@H](CO)[C@H](O)[C@H](O[C@]3(C(=O)O)C[C@H](O)[C@@H](NC(=O)c4ccccc4)[C@H]([C@H](O)[C@H](O)CO)O3)[C@H]2O)[C@H](O)[C@H]1O)NC(=O)CCCCCCCCCCCCCCCCC | – | – | – | > 200 | > 200 | > 200 | > 200 | > 200 | – | –
5 | CCCCCCCCCCCCC/C=C/[C@@H](O)[C@H](CO[C@@H]1O[C@H](CO)[C@@H](O[C@@H]2O[C@H](CO)[C@H](O)[C@H](O[C@]3(C(=O)O)C[C@H](O)[C@@H](NC(=O)c4ccc(C=O)cc4)[C@H]([C@H](O)[C@H](O)CO)O3)[C@H]2O)[C@H](O)[C@H]1O)NC(=O)CCCCCCCCCCCCCCCCC | – | – | – | > 200 | > 200 | > 200 | > 200 | > 200 | Active | –
6 | CCCCCCCCCCCCC/C=C/[C@@H](O)[C@H](CO[C@@H]1O[C@H](CO)[C@@H](O[C@@H]2O[C@H](CO)[C@H](O)[C@H](O[C@]3(C(=O)O)C[C@H](O)[C@@H](NC(C)=O)[C@H]([C@H](O)[C@H](O)CO)O3)[C@H]2O)[C@H](O)[C@H]1O)NC(=O)CCCCCCCCCC | – | – | – | > 200 | > 200 | > 200 | > 200 | > 200 | – | –
7 | CCCCCCCCCCCCC/C=C/[C@@H](O)[C@H](CO[C@@H]1O[C@H](CO)[C@@H](O[C@@H]2O[C@H](CO)[C@H](O)[C@H](O[C@]3(C(=O)O)C[C@H](O)[C@@H](NC(=O)c4cccc([N+](=O)[O-])c4)[C@H]([C@H](O)[C@H](O)CO)O3)[C@H]2O)[C@H](O)[C@H]1O)NC(=O)CCCCCCCCCCCCCCCCC | – | – | – | > 200 | > 200 | > 200 | > 200 | > 200 | – | –
8 | CCCCCCCCCCCCC/C=C/[C@@H](O)[C@H](CO[C@@H]1O[C@H](CO)[C@@H](O[C@@H]2O[C@H](CO)[C@H](O)[C@H](O[C@]3(C(=O)O)C[C@H](O)[C@@H](NC(=O)c4ccc(F)cc4)[C@H]([C@H](O)[C@H](O)CO)O3)[C@H]2O)[C@H](O)[C@H]1O)NC(=O)CCCCCCCCCCCCCCCCC | – | – | – | > 200 | > 200 | > 200 | > 200 | > 200 | – | –
9 | CCCCCCCCCCCCC/C=C/[C@@H](O)[C@H](CO[C@@H]1O[C@H](CO)[C@@H](O[C@@H]2O[C@H](CO)[C@H](O)[C@H](O[C@]3(C(=O)O)C[C@H](O)[C@@H](NC(=O)c4ccncc4)[C@H]([C@H](O)[C@H](O)CO)O3)[C@H]2O)[C@H](O)[C@H]1O)NC(=O)CCCCCCCCCCCCCCCCC | – | – | – | > 200 | > 200 | > 200 | > 200 | > 200 | Active | 26.2
10 | CCCCCCCCCCCCC/C=C/[C@@H](O)[C@H](CO[C@@H]1O[C@H](CO)[C@@H](O[C@@H]2O[C@H](CO)[C@H](O)[C@H](O[C@]3(C(=O)O)C[C@H](O)[C@@H](NC(=O)c4cc(F)cc(F)c4)[C@H]([C@H](O)[C@H](O)CO)O3)[C@H]2O)[C@H](O)[C@H]1O)NC(=O)CCCCCCCCCCCCCCCCC | – | – | – | > 200 | > 200 | > 200 | > 200 | > 200 | – | –
11 | CCCCCCCCCCCCC/C=C/[C@@H](O)[C@H](CO[C@@H]1O[C@H](CO)[C@@H](O[C@@H]2O[C@H](CO)[C@H](O)[C@H](O[C@]3(C(=O)O)C[C@H](O)[C@@H](NC(=O)c4cccc(Br)c4)[C@H]([C@H](O)[C@H](O)CO)O3)[C@H]2O)[C@H](O)[C@H]1O)NC(=O)CCCCCCCCCCCCCCCCC | – | – | – | > 200 | > 200 | > 200 | > 200 | > 200 | – | –
12 | CCCCCCCCCCCCC/C=C/[C@@H](O)[C@H](CO[C@@H]1O[C@H](CO)[C@@H](O[C@@H]2O[C@H](CO)[C@H](O)[C@H](O[C@]3(C(=O)O)C[C@H](O)[C@@H](NC(=O)Cc4ccc(C)cc4)[C@H]([C@H](O)[C@H](O)CO)O3)[C@H]2O)[C@H](O)[C@H]1O)NC(=O)CCCCCCCCCCCCCCCCC | – | – | – | > 200 | > 200 | > 200 | > 200 | > 200 | – | –
13 | CCCCCCCCCCCCC/C=C/[C@@H](O)[C@H](CO[C@@H]1O[C@H](CO)[C@@H](O[C@@H]2O[C@H](CO)[C@H](O)[C@H](O[C@]3(C(=O)O)C[C@H](O)[C@@H](NC(=O)c4cc(C)cc(C)c4)[C@H]([C@H](O)[C@H](O)CO)O3)[C@H]2O)[C@H](O)[C@H]1O)NC(=O)CCCCCCCCCCCCCCCCC | – | – | – | > 200 | > 200 | > 200 | > 200 | > 200 | – | –
14 | CCCCCCCCCCCCC/C=C/[C@@H](O)[C@H](CO[C@@H]1O[C@H](CO)[C@@H](O[C@@H]2O[C@H](CO)[C@H](O)[C@H](O[C@]3(C(=O)O)C[C@H](O)[C@@H](NC(=O)c4cccc(F)c4)[C@H]([C@H](O)[C@H](O)CO)O3)[C@H]2O)[C@H](O)[C@H]1O)NC(=O)CCCCCCCCCCCCCCCCC | – | – | – | > 200 | > 200 | > 200 | > 200 | > 200 | Active | 27.8
